Measurements reported in patent publication US3932384A, “Dibenzazecines” (Shionogi & Co., Ltd., priority 1972, dated 1976).

Columns and labels:
[1] = Acute toxicity (mortality, LD50) in mice; conditions: mouse, in vivo; DS-mice; mortality during 72 hours after administration; Bliss' method
Procedure: Ten DS-mice (15 to 17 g body weight, male and female) in every group are used in the test at each dose level. Each assay compound is tested in 4 to 5 doses. The mortality is counted during a period of 72 hours after the administration of the test compound. The LD50 is calculated by the Bliss' method.

DS-mice [2] = assay: Analgesic activity (Writhing method), phenylquinone-induced writhing in mice; format: in vivo; conditions: Mus musculus, ip, 0.25 h, phenylquinone i.p. 0.2 mg/10 g, 15 minutes, up-and-down method, read-out: Analgesic action, Writhing (ED50)
Procedure: 1. Analgesic activity (Writhing method);
DS-mice (15 to 17 g body weight, male and female) are treated with an intraperitoneal injection of 0.2 mg/10 g of 0.02 % phenylquinone solution as a writhing inducer and kept in an individual observation cage for 15 minutes after the administration of phenylquinone. […] The ED50 is calculated by the up-and-down method of Brownlee et al. [Fed.

DS-mice [3] = assay: Analgesic activity (Haffner method), tail-root pinch in mice; format: in vivo; conditions: Mus musculus, tail-root pinch with forceps, no withdrawal response within 3 seconds, Bliss' method, read-out: Analgesic action, Haffner (ED50)
Procedure: 2. Analgesic activity (Haffner method);
The tail-roots of DS-mice (15 to 17 g body weight, male and female) are pinched with a pair of forceps. Pain responses, such as biting, head turning and vocalization are observed. All of the control animals respond to the noxious stimulus with in a period of one second. […] The ED50 is calculated by the Bliss' method [Ann. Appl. Biol., 22, 134; 307 (1935); Quat. J. Pharmacol., 11, 192 (1938)].

| Structure (SMILES) | LD50 at 72 h [1] | ED50 (DS-mice [2]) | ED50 (DS-mice [3]) |
| --- | --- | --- | --- |
| COc1ccc2c(c1OC)CN(C)CCc1cc(O)ccc1CC2 [Compound 3, 3,4-Dimethoxy-10-hydroxy-6-methyl-5,6,7,8,13,14-hexahydrodibenz[c,g]azecine] | 231 mg/kg | 22.3 mg/kg | 37.9 mg/kg |
| CN1CCc2ccc(O)cc2CCc2ccc(O)c(O)c2C1 [Compound 1] | 50 to 100 mg/kg | 26 mg/kg | – |
| COc1ccc2c(c1OC)CNCCc1cc(O)ccc1CC2 [Compound 7, 3,4-dimethoxy-10-hydroxy-5,6,7,8,13,14-hexahydrodibenz[c,g]azecine] | 500 mg/kg | 26.5 mg/kg | 250 mg/kg |
| CN1CCc2ccc(O)cc2CCc2cccc(O)c2C1.[O-][Cl+3]([O-])([O-])O [Compound 5, 4,11-Dihydroxy-6-methyl-5,6,7,8,13,14-hexahydrodibenz[c,g]azecine perchlorate] | 300 mg/kg | 50 mg/kg | – |
| COc1ccc2c(c1OC)CN(C)CCc1ccc(O)cc1CC2 [Compound 2, 3,4-Dimethoxy-11-hydroxy-6-methyl-5,6,7,8.13,14-hexahydrodibenz[c,g]azecine] | 54.9 mg/kg | 23.2 mg/kg | 58 mg/kg |
| Br.CN1CCc2cc(O)ccc2CCc2ccc(O)c(O)c2C1 [Compound 6, 6-Methyl-3,4,10-trihydroxy-5,6,7,8,13,14-hexahydrodibenz[c,g]azecine hydrobromide] | 300 mg/kg | 75 mg/kg | – |
| Cc1c(N(C)C)c(=O)n(-c2ccccc2)n1C [Aminopyrine, reference compound] | 335 mg/kg | 44 mg/kg | 138 mg/kg |
| COc1ccc2c(c1OC)CN(C)CCc1cc(CO)c(O)cc1CC2 [Compound 4, 3,4-dimethoxy-11-hydroxy-10-hydroxymethyl-6-methyl-5,6,7,8,13,14-hexahydrodibenz[c,g]azecin] | > 500 mg/kg | 45 mg/kg | – |
